Here are results for 18 compounds from ChEMBL document CHEMBL3120106, “Novel compounds lowering the cellular isoform of the human prion protein in cultured human cells” (Bioorg Med Chem, 2014).

Activity calls are given as the source filed them. The rule behind the calls is not given here. A value given as a limit tells only on which side of the number the result lay.

Tested on in the first data set: not listed separately
As to the kind of experiment: Cmax in CD-1 mouse plasma at 10 mg/kg, po administered via gavage as single dose by LC/MS/MS analysis. It is filed as ADME, organism-based. On the set-up: dose 10 mg/kg, route oral.
Conditions: not given
As to `COc1ccc(Cl)cc1C(=O)N1CCN(c2cccc(Cl)c2)CC1`, the Cmax (as a rule, the maximum level reached in the sampled fluid or tissue) is < 100 nM.
In the case of `O=C(Nc1ccc(I)cn1)c1cccc(F)c1`, the Cmax was < 100 nM.
With `CCOc1ccc2c(c1)C(C)=CC(C)(C)N2S(=O)(=O)c1ccc(C)cc1`, the Cmax is < 100 nM.
On to `Cc1nc2sccn2c1-c1csc(Nc2ccc(N(C)C)nc2)n1`, for which the Cmax is < 100 nM.
As to `CN(C)c1ccc2c(c1)OC(N)=C(C#N)C2c1ccccc1` (stereo unspecified), the Cmax was < 100 nM.
For `CCOC(=O)c1[nH]c2c(c1C)C(=O)CC(c1ccccc1)C2` (stereo unspecified), the Cmax was < 100 nM.
For the compound `COc1ccc(Cl)cc1C(=O)N1CC(=O)Nc2ccccc21`, the Cmax was < 100 nM.
Regarding `COc1cc(OC)cc(C(=O)Nc2ccc(I)cn2)c1`, the Cmax is < 100 nM.
Regarding `Cc1cc(C)c(S(=O)(=O)NCc2ccncc2)c(C)c1`, the Cmax is < 100 nM.
Take `CC1=CC(C)(C)N(S(=O)(=O)c2ccc(C)cc2)c2cc(C)ccc21`: the Cmax is < 100 nM.
Same read-out and setting: the value for `COc1ccc(Cl)cc1NS(=O)(=O)c1ccc(N2CCCC2=O)cc1` was < 100 nM.

Tested on in the next data set: not listed separately
As to the kind of experiment: Cytotoxicity against mouse N2a-cl3 cells assessed as cell viability after 2 days by calcein AM assay. It is filed as cell-based. The following applies: n2a-cl3, 48 h.
In the case of `CCOC(=O)c1[nH]c2c(c1C)C(=O)CC(c1ccco1)C2` (stereo unspecified), the Activity result was “Non-toxic”.
For `COc1cc(OC)cc(C(=O)Nc2ccc(I)cn2)c1`, the Activity result is on record as “Non-toxic”.

The test system of the next data set is T98G. The experiment in a line: Cytotoxicity against human T98G cells assessed as decrease in cell viability after 2 days by calcein AM assay. The format is cell-based. The following applies: 48 h, read-out: LC50 (the source's name).
With `O=C(Cc1ccc(Br)cc1)NCc1ccccc1`, the CC50 is > 10000 nM.
As to `O=C(Cc1ccc(Cl)cc1)NCc1ccccc1`, the CC50 was > 10000 nM.
For `COc1ccc(CC(=O)NCc2ccccc2)cc1`, the CC50 is > 10000 nM.

The subject of another data set is T98G. The experiment in a line: cells. The following applies: Homo sapiens, 48 h.
In the case of `O=C(Cc1ccc(Br)cc1)NCc1ccccc1`, the EC50 (commonly the concentration that produces a half-maximal response) amounted to 2330 nM.
Regarding `O=C(Cc1ccc(Cl)cc1)NCc1ccccc1`, the EC50 was > 10000 nM.
Take `COc1ccc(CC(=O)NCc2ccccc2)cc1`: a half-maximal response (EC50) required 3130 nM.
With `Cc1ccn2c(-c3csc(Nc4ccc(N(C)C)cc4)n3)c(C)nc2c1`, the response was half-maximal at 110 nM (EC50).
`CN(C)c1ccc2c(c1)OC(N)=C(C#N)C2c1cccs1` (stereo unspecified) returned an EC50 of 220 nM.
For the compound `COc1ccc(Cl)cc1C(=O)N1CCN(c2cccc(Cl)c2)CC1`, it took 170 nM to reach a half-maximal effect (EC50).
`O=C(Nc1ccc(I)cn1)c1cccc(F)c1` displayed an EC50 of 450 nM.
The compound `Cc1nc2ncccn2c1-c1csc(Nc2ccc(Cl)cc2)n1` displayed an EC50 of 2440 nM.
With `CCOc1ccc2c(c1)C(C)=CC(C)(C)N2S(=O)(=O)c1ccc(C)cc1`, the EC50 was determined as 690 nM.
The compound `Cc1nc2sccn2c1-c1csc(Nc2ccc(N(C)C)nc2)n1` returned an EC50 of 220 nM.
In turn, `CCOC(=O)c1[nH]c2c(c1C)C(=O)CC(c1ccco1)C2` (stereo unspecified) showed an EC50 of 680 nM.
As to `CCOC(=O)c1[nH]c2c(c1C)C(=O)CC(c1ccccc1)C2` (stereo unspecified), a half-maximal response (EC50) required 110 nM.
Still for that read-out and setting: the value for `COc1ccc(Cl)cc1C(=O)N1CC(=O)Nc2ccccc21` was 650 nM.
For `COc1cc(OC)cc(C(=O)Nc2ccc(I)cn2)c1`, the response was half-maximal at 1310 nM (EC50).
In turn, `Cc1cc(C)c(S(=O)(=O)NCc2ccncc2)c(C)c1` gave an EC50 of 4130 nM.
`CC1=CC(C)(C)N(S(=O)(=O)c2ccc(C)cc2)c2cc(C)ccc21` came in with an EC50 of 3770 nM.
Turning to `COc1ccc(Cl)cc1NS(=O)(=O)c1ccc(N2CCCC2=O)cc1`, the EC50 is 510 nM.

Tested on in a further data set: not listed separately
As to the kind of experiment: Cmax in CD-1 mouse brain at 10 mg/kg, po administered via gavage as single dose by LC/MS/MS analysis. The format is ADME, organism-based.
Conditions: not given
On the set-up: dose 10 mg/kg, route oral.
Consider `COc1ccc(Cl)cc1C(=O)N1CCN(c2cccc(Cl)c2)CC1`, for which the Cmax was < 100 nM.
On to `O=C(Nc1ccc(I)cn1)c1cccc(F)c1`, for which the Cmax was < 100 nM.
Consider `CCOc1ccc2c(c1)C(C)=CC(C)(C)N2S(=O)(=O)c1ccc(C)cc1`, for which the Cmax is < 100 nM.
In the case of `Cc1nc2sccn2c1-c1csc(Nc2ccc(N(C)C)nc2)n1`, the Cmax is < 100 nM.
On to `CN(C)c1ccc2c(c1)OC(N)=C(C#N)C2c1ccccc1` (stereo unspecified), for which the Cmax was < 100 nM.
Turning to `CCOC(=O)c1[nH]c2c(c1C)C(=O)CC(c1ccccc1)C2` (stereo unspecified), the Cmax was < 100 nM.
`COc1ccc(Cl)cc1C(=O)N1CC(=O)Nc2ccccc21`: the Cmax was < 100 nM.
Turning to `COc1cc(OC)cc(C(=O)Nc2ccc(I)cn2)c1`, the Cmax was < 100 nM.
As for `Cc1cc(C)c(S(=O)(=O)NCc2ccncc2)c(C)c1`, the Cmax is < 100 nM.
With `CC1=CC(C)(C)N(S(=O)(=O)c2ccc(C)cc2)c2cc(C)ccc21`, the Cmax was < 100 nM.
On the same count and under the same terms, the value for `COc1ccc(Cl)cc1NS(=O)(=O)c1ccc(N2CCCC2=O)cc1` was < 100 nM.

The next data set deals with Liver microsome. The experiment in a line: Half life in human liver microsomes at 1 uM by LC/MS/MS analysis.
Conditions: not given
The format is ADME. (In general: Liver microsomes are vesicles of endoplasmic reticulum, rich in cytochrome P450 enzymes.)
`COc1ccc(Cl)cc1C(=O)N1CCN(c2cccc(Cl)c2)CC1` yielded a t1/2 of 6 min.

Tested on in the next data set: not listed separately
As to the kind of experiment: Half life in mouse liver microsomes at 1 uM by LC/MS/MS analysis. It is filed as ADME, Microsome.
Conditions: not given
For `COc1ccc(Cl)cc1C(=O)N1CCN(c2cccc(Cl)c2)CC1`, the t1/2 is 3 min.

Tested on in another data set: not listed separately
The experiment in a line: Metabolic stability in mouse liver microsomes assessed as compound remaining at 1 uM after 60 mins by LC/MS/MS analysis. The following applies: 1 h. The format is ADME, Microsome.
As for `COc1ccc(Cl)cc1C(=O)N1CCN(c2cccc(Cl)c2)CC1`, the Stability is on record as 0.1%.

Tested on in a further data set: not listed separately
The experiment in a line: Cmax in CD-1 mouse brain at 10 mg/kg, ip administered as single dose by LC/MS/MS analysis. It is filed as ADME, organism-based. Set-up: dose 10 mg/kg, route intraperitoneal.
Conditions: not given
In the case of `COc1ccc(Cl)cc1C(=O)N1CCN(c2cccc(Cl)c2)CC1`, the Cmax was ≤ 16200 nM.
Turning to `O=C(Nc1ccc(I)cn1)c1cccc(F)c1`, the Cmax is ≤ 16200 nM.
On to `CCOc1ccc2c(c1)C(C)=CC(C)(C)N2S(=O)(=O)c1ccc(C)cc1`, for which the Cmax was ≤ 16200 nM.
Take `Cc1nc2sccn2c1-c1csc(Nc2ccc(N(C)C)nc2)n1`: the Cmax was ≤ 16200 nM.
For the compound `CN(C)c1ccc2c(c1)OC(N)=C(C#N)C2c1ccccc1` (stereo unspecified), the Cmax was ≤ 16200 nM.
In the case of `CCOC(=O)c1[nH]c2c(c1C)C(=O)CC(c1ccccc1)C2` (stereo unspecified), the Cmax is ≤ 16200 nM.
Take `COc1ccc(Cl)cc1C(=O)N1CC(=O)Nc2ccccc21`: the Cmax is ≤ 16200 nM.
The same measure, in the same setting: the value for `COc1cc(OC)cc(C(=O)Nc2ccc(I)cn2)c1` was ≤ 16200 nM.
On to `Cc1cc(C)c(S(=O)(=O)NCc2ccncc2)c(C)c1`, for which the Cmax is ≤ 16200 nM.
Take `CC1=CC(C)(C)N(S(=O)(=O)c2ccc(C)cc2)c2cc(C)ccc21`: the Cmax was ≤ 16200 nM.
Consider `COc1ccc(Cl)cc1NS(=O)(=O)c1ccc(N2CCCC2=O)cc1`, for which the Cmax is ≤ 16200 nM.

The test system of the next data set is Liver microsome. As to the kind of experiment: Metabolic stability in human liver microsomes assessed as compound remaining at 1 uM after 60 mins by LC/MS/MS analysis. The following applies: 1 h. It is filed as ADME.
In the case of `COc1ccc(Cl)cc1C(=O)N1CCN(c2cccc(Cl)c2)CC1`, the Stability came out at 0.1%.

Tested on in another data set: not listed separately
As to the kind of experiment: Decrease in PrPc expression on mouse N2a-cl3 cell surface after 2 days by ELISA. The format is functional, cell-based.
Conditions: not given
On to `CCOC(=O)c1[nH]c2c(c1C)C(=O)CC(c1ccco1)C2` (stereo unspecified), for which the inhibition entry was “Active”.
The same measure, in the same setting: the value for `COc1cc(OC)cc(C(=O)Nc2ccc(I)cn2)c1` was “Active”.
